Results: patent publication US20190290772A1 (published 2019)

Experiments:
[1] = target: human glucagon receptor (GcgR) (Homo sapiens, UniProt P47871); experiment: Human glucagon receptor activation (Table 1); assay type: cell-based; settings: read-out: EC50 (nM) hGcgR
[2] = system: diet-induced obese (DIO) mice; experiment: Weight-lowering and metabolic pharmacology in diet-induced obese mice on HFHSD; assay type: in vivo; settings: for effect on body weight: DIO mice on HFHSD, equimolar doses, daily s.c. (FIG. 5A); for food intake: DIO mice (FIG. 5C)
Protocol: (§1) For pharmacology studies on energy metabolism in obese mice (DIO mice), male C57Bl/6j mice (Jackson Laboratories) were fed a diabetogenic diet (Research Diets D12331), which is a high-sucrose diet with 58% kcal from fat 25.5% kcal from carbohydrates, and 16.4% kcal from protein. Dietary challenges began at 8 weeks of age. HFHSD mice were single- or group-housed on a 12:12-h light-dark cycle at 22° C. with free access to food and water. Mice were maintained under these conditions for a minimum of 16 weeks before initiation of pharmacological studies and were between the ages of 6 months to 12 months old. All injections and tests were performed during the light cycle. Compounds were administered in a vehicle of 1% Tween-80 and 1% DMSO and were given by daily subcutaneous injections at the indicated doses at a volume of 5 μl per g body weight. Mice were randomized and evenly distributed to test groups according to body weight and body composition. If ex vivo molecular biology/histology/biochemistry analyses were performed, the entire group of mice for each treatment was analyzed and scored in a blinded fashion.
Compounds were administered by repeated subcutaneous injections in the middle of the light phase at the indicated doses with the indicated durations. Co-administration of compounds was administered by single formulated injections. Body weights and food intake were measured every day or every other day after the first injection. All studies with wild-type mice were performed with a group size of n=8 or greater using mice on a C57B16j background.
For assessment of intraperitoneal glucose tolerance during chronic treatment, the challenge tests were performed at least 24 hours after the last administration of compounds. The investigators were not blinded to group allocation during the in vivo experiments or to the assessment of longitudinal endpoints. All rodent studies were approved by and performed according to the guidelines of the Institutional Animal Care and Use Committee of the Helmholtz Center Munich, University of Cincinnati, Universite de Lyon, and in accordance with guidelines of the Association for the Assessment and Accreditation of Laboratory and Animal Care (AAALAC # Unit Number: 001057) and appropriate federal, state and local guidelines, respectively.
Whole-body composition (fat and lean mass) was measured using nuclear magnetic resonance technology (EchoMRI).

[3] = system: diet-induced obese (DIO) mice; experiment: Heart weight / cardiac hypertrophy in DIO mice; settings: mouse, in vivo
Protocol: For pharmacology studies on energy metabolism in obese mice (DIO mice), male C57Bl/6j mice (Jackson Laboratories) were fed a diabetogenic diet (Research Diets D12331), which is a high-sucrose diet with 58% kcal from fat 25.5% kcal from carbohydrates, and 16.4% kcal from protein. Dietary challenges began at 8 weeks of age. HFHSD mice were single- or group-housed on a 12:12-h light-dark cycle at 22° C. with free access to food and water. Mice were maintained under these conditions for a minimum of 16 weeks before initiation of pharmacological studies and were between the ages of 6 months to 12 months old. All injections and tests were performed during the light cycle. Compounds were administered in a vehicle of 1% Tween-80 and 1% DMSO and were given by daily subcutaneous injections at the indicated doses at a volume of 5 μl per g body weight. Mice were randomized and evenly distributed to test groups according to body weight and body composition. If ex vivo molecular biology/histology/biochemistry analyses were performed, the entire group of mice for each treatment was analyzed and scored in a blinded fashion. Compounds were administered by repeated subcutaneous injections in the middle of the light phase at the indicated doses with the indicated durations. […] Body weights and food intake were measured every day or every other day after the first injection. […]

[4] = system: diet-induced obese (DIO) mice; experiment: Indirect calorimetry in DIO mice (energy expenditure, RER, home-cage activity, food intake); assay type: in vivo
Protocol: as §1, with “fashion. Energy intake, energy expenditure, respiratory exchange ratio, and home-cage activity were assessed using a combined indirect calorimetry system (TSE Systems). O2 consumption and CO2 production were measured every 10 min for a total of up to 160 h (after 24 h of adaptation) to determine the respiratory quotient and energy expenditure after an initial treatment regimen. Food intake was determined continuously for the same time as the indirect calorimetry assessments by integration of scales into the sealed cage environment. Home-cage locomotor activity was determined using a multidimensional infrared light beam system with beams scanning the bottom and top levels of the cage, and activity being expressed as beam breaks.” for “fashion.”

Row | SMILES | EC50 [1] [nM] | effect on body weight [2] | heart weight / cardiac hypertrophy [3] | food intake [2] | absolute decrease in body weight from baseline ([2]; DIO mice, 100 nmoles/kg, daily subcutaneous treatment, after a week (FIG. 5A)) [%] | food intake during calorimetry ([4]; DIO mice (FIG. 6D)) | body weight loss during calorimetry study ([4]; DIO mice (FIG. 6E)) | home cage / ambulatory activity ([4]; DIO mice (FIG. 6F)) | whole-body energy expenditure ([4]; DIO mice, indirect calorimetry (FIG. 6C)) | glucose tolerance ([2]; DIO mice, higher dose, equimolar (FIG. 5D))
1 | CC[C@H](C)[C@H](NC(=O)[C@H](Cc1ccccc1)NC(=O)[C@H](CCC(=O)O)NC(=O)[C@H](CCCCN)NC(=O)[C@H](C)NC(=O)[C@H](C)NC(=O)[C@H](CCC(N)=O)NC(=O)[C@H](CCC(=O)O)NC(=O)[C@H](CCC(=O)O)NC(=O)[C@H](CC(C)C)NC(=O)[C@H](Cc1ccc(O)cc1)NC(=O)[C@H](CO)NC(=O)[C@H](CO)NC(=O)[C@@H](NC(=O)[C@H](CC(=O)O)NC(=O)[C@H](CO)NC(=O)[C@@H](NC(=O)[C@H](Cc1ccccc1)NC(=O)[C@@H](NC(=O)CNC(=O)[C@H](CCC(=O)O)NC(=O)C(C)(C)NC(=O)[C@@H](N)Cc1c[nH]cn1)[C@@H](C)O)[C@@H](C)O)C(C)C)C(=O)N[C@@H](C)C(=O)N[C@@H](Cc1c[nH]c2ccccc12)C(=O)N[C@@H](CC(C)C)C(=O)N[C@H](C(=O)N[C@@H](CCCCN)C(=O)NCC(=O)NCC(=O)N1CCC[C@H]1C(=O)N[C@@H](CO)C(=O)N[C@@H](CO)C(=O)NCC(=O)N[C@@H](C)C(=O)N1CCC[C@H]1C(=O)N1CCC[C@H]1C(=O)N1CCC[C@H]1C(=O)N[C@@H](CO)C(=O)N[C@@H](CCCCN)C(N)=O)C(C)C [IUB48] | > 100 | minimal impact on body weight | – | – | – | – | – | – | – | –
2 | CC[C@H](C)[C@H](NC(=O)[C@H](Cc1ccccc1)NC(=O)[C@H](CCC(=O)O)NC(=O)[C@H](CCCCN)NC(=O)[C@H](C)NC(=O)[C@H](C)NC(=O)[C@H](CCC(N)=O)NC(=O)[C@H](CCC(=O)O)NC(=O)[C@H](CCC(=O)O)NC(=O)[C@H](CC(C)C)NC(=O)[C@H](Cc1ccc(O)cc1)NC(=O)[C@H](CO)NC(=O)[C@H](CO)NC(=O)[C@@H](NC(=O)[C@H](CC(=O)O)NC(=O)[C@H](CO)NC(=O)[C@@H](NC(=O)[C@H](Cc1ccccc1)NC(=O)[C@@H](NC(=O)CNC(=O)[C@H](CCC(=O)O)NC(=O)C(C)(C)NC(=O)[C@@H](N)Cc1c[nH]cn1)[C@@H](C)O)[C@@H](C)O)C(C)C)C(=O)N[C@@H](C)C(=O)N[C@@H](Cc1c[nH]c2ccccc12)C(=O)N[C@@H](CC(C)C)C(=O)N[C@H](C(=O)N[C@@H](CCCCN)C(=O)NCC(=O)NCC(=O)N1CCC[C@H]1C(=O)N[C@@H](CO)C(=O)N[C@@H](CO)C(=O)NCC(=O)N[C@@H](C)C(=O)N1CCC[C@H]1C(=O)N1CCC[C@H]1C(=O)N1CCC[C@H]1C(=O)N[C@@H](CO)C(=O)N[C@@H](CCCCNC(=O)CC[C@H](NC(=O)[C@@H](N)Cc1cc(I)c(Oc2ccc(O)c(I)c2)c(I)c1)C(=O)O)C(N)=O)C(C)C [IUB686, IUB48-(gE-T3-NH2)-amide] | > 100 | – | did not increase raw heart weight | – | – | – | – | – | – | –
3 | CC[C@H](C)[C@H](NC(=O)[C@H](Cc1ccccc1)NC(=O)[C@H](CCC(=O)O)NC(=O)[C@H](CCCCN)NC(=O)[C@H](C)NC(=O)[C@H](C)NC(=O)[C@H](CCC(N)=O)NC(=O)[C@H](CCC(=O)O)NC(=O)[C@H](CCC(=O)O)NC(=O)[C@H](CC(C)C)NC(=O)[C@H](Cc1ccc(O)cc1)NC(=O)[C@H](CO)NC(=O)[C@H](CO)NC(=O)[C@@H](NC(=O)[C@H](CC(=O)O)NC(=O)[C@H](CO)NC(=O)[C@@H](NC(=O)[C@H](Cc1ccccc1)NC(=O)[C@@H](NC(=O)CNC(=O)[C@H](CCC(=O)O)NC(=O)C(C)(C)NC(=O)[C@@H](N)Cc1c[nH]cn1)[C@@H](C)O)[C@@H](C)O)C(C)C)C(=O)N[C@@H](C)C(=O)N[C@@H](Cc1c[nH]c2ccccc12)C(=O)N[C@@H](CC(C)C)C(=O)N[C@H](C(=O)N[C@@H](CCCCN)C(=O)NCC(=O)NCC(=O)N1CCC[C@H]1C(=O)N[C@@H](CO)C(=O)N[C@@H](CO)C(=O)NCC(=O)N[C@@H](C)C(=O)N1CCC[C@H]1C(=O)N1CCC[C@H]1C(=O)N1CCC[C@H]1C(=O)N[C@@H](CO)C(=O)N[C@@H](CCCCNC(=O)CCC(=O)N[C@@H](Cc1cc(I)c(Oc2ccc(O)c(I)c2)c(I)c1)C(=O)O)C(N)=O)C(C)C [IUB687, IUB48-(Suc-T3-OH)-amide] | > 100 | significantly lowered body weight in a dose-dependent manner | – | no reductions in food intake | 11 | – | – | – | – | –
4 | N[C@@H](Cc1cc(I)c(Oc2ccc(O)c(I)c2)c(I)c1)C(=O)O [Peptide T3, Triiodothyronine] | – | minimal impact on body weight | – | increased | – | hyperphagia | less body weight loss | significantly increased home cage activity | substantially increased whole-body energy expenditure | improved glycemic control
